From PubChem BioAssay (NCI)
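Grown in 96-well plates, cells were treated for 48 hours with each compound at five concentrations. Insufficient inhibition: endpoint recorded as highest concentration tested. TGI is the concentration that stops growth completely.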

Legend:
Test in all cases: growth of human tumour cells (NCI), 48 h
786-0 renal = system: 786-0 renal
A498 renal = system: A498 renal
A549 NSCLC = system: A549 NSCLC
ACHN renal = system: ACHN renal
BT-549 breast = system: BT-549 breast
CAKI-1 renal = system: CAKI-1 renal
CCRF-CEM leukemia = system: CCRF-CEM leukemia
COLO 205 colon = system: COLO 205 colon
DU-145 prostate = system: DU-145 prostate
EKVX NSCLC = system: EKVX NSCLC
HCC-2998 colon = system: HCC-2998 colon
HCT-116 colon = system: HCT-116 colon
HCT-15 colon = system: HCT-15 colon
HL-60(TB) leukemia = system: HL-60(TB) leukemia
HOP-62 NSCLC = system: HOP-62 NSCLC
HOP-92 NSCLC = system: HOP-92 NSCLC
HS 578T breast = system: HS 578T breast
HT29 colon = system: HT29 colon
IGROV1 ovarian = system: IGROV1 ovarian
K-562 leukemia = system: K-562 leukemia
KM12 colon = system: KM12 colon
LOX IMVI melanoma = system: LOX IMVI melanoma
M14 melanoma = system: M14 melanoma
MALME-3M melanoma = system: MALME-3M melanoma
MCF7 breast = system: MCF7 breast
MDA-MB-231 breast = system: MDA-MB-231 breast
MDA-MB-435 = system: MDA-MB-435
MDA-N = system: MDA-N
MOLT-4 leukemia = system: MOLT-4 leukemia
NCI-H226 lung = system: NCI-H226 lung
NCI-H23 lung = system: NCI-H23 lung
NCI-H460 lung = system: NCI-H460 lung
NCI-H522 lung = system: NCI-H522 lung
NCI/ADR-RES ovarian = system: NCI/ADR-RES ovarian
OVCAR-3 ovarian = system: OVCAR-3 ovarian
OVCAR-4 ovarian = system: OVCAR-4 ovarian
OVCAR-5 ovarian = system: OVCAR-5 ovarian
OVCAR-8 ovarian = system: OVCAR-8 ovarian
PC-3 prostate = system: PC-3 prostate
RPMI-8226 leukemia = system: RPMI-8226 leukemia
RXF 393 renal = system: RXF 393 renal
SF-268 CNS = system: SF-268 CNS
SF-295 CNS = system: SF-295 CNS
SF-539 CNS = system: SF-539 CNS
SK-MEL-2 melanoma = system: SK-MEL-2 melanoma
SK-MEL-28 melanoma = system: SK-MEL-28 melanoma
SK-MEL-5 melanoma = system: SK-MEL-5 melanoma
SK-OV-3 ovarian = system: SK-OV-3 ovarian
SN12C renal = system: SN12C renal
SNB-19 CNS = system: SNB-19 CNS
SNB-75 CNS = system: SNB-75 CNS
SR leukemia = system: SR leukemia
SW-620 colon = system: SW-620 colon
T-47D breast = system: T-47D breast
TK-10 renal = system: TK-10 renal
U251 CNS = system: U251 CNS
UACC-257 melanoma = system: UACC-257 melanoma
UACC-62 melanoma = system: UACC-62 melanoma
UO-31 renal = system: UO-31 renal

CC1OC(OC2C(O)C(O)C(O)C(O)C2O)C(N)CC1N=C(N)C(=O)O (centres undefined)
TGI (786-0 renal): > 100 µM
TGI (A498 renal): > 100 µM
TGI (A549 NSCLC): > 100 µM
TGI (ACHN renal): > 100 µM
TGI (BT-549 breast): > 100 µM
TGI (CAKI-1 renal): > 100 µM
TGI (CCRF-CEM leukemia): > 100 µM
TGI (COLO 205 colon): > 100 µM
TGI (DU-145 prostate): > 100 µM
TGI (EKVX NSCLC): > 100 µM
TGI (HCC-2998 colon): > 100 µM
TGI (HCT-116 colon): > 100 µM
TGI (HCT-15 colon): > 100 µM
TGI (HL-60(TB) leukemia): > 100 µM
TGI (HOP-62 NSCLC): > 100 µM
TGI (HOP-92 NSCLC): > 100 µM
TGI (HS 578T breast): > 100 µM
TGI (HT29 colon): > 100 µM
TGI (IGROV1 ovarian): > 100 µM
TGI (K-562 leukemia): > 100 µM
TGI (KM12 colon): > 100 µM
TGI (LOX IMVI melanoma): > 100 µM
TGI (M14 melanoma): > 100 µM
TGI (MALME-3M melanoma): > 100 µM
TGI (MCF7 breast): > 100 µM
TGI (MDA-MB-231 breast): > 100 µM
TGI (MDA-MB-435): > 100 µM
TGI (MDA-N): > 100 µM
TGI (MOLT-4 leukemia): > 100 µM
TGI (NCI-H226 lung): > 100 µM
TGI (NCI-H23 lung): > 100 µM
TGI (NCI-H460 lung): > 100 µM
TGI (NCI-H522 lung): > 100 µM
TGI (NCI/ADR-RES ovarian): > 100 µM
TGI (OVCAR-3 ovarian): > 100 µM
TGI (OVCAR-4 ovarian): > 100 µM
TGI (OVCAR-5 ovarian): > 100 µM
TGI (OVCAR-8 ovarian): > 100 µM
TGI (PC-3 prostate): > 100 µM
TGI (RPMI-8226 leukemia): > 100 µM
TGI (RXF 393 renal): > 100 µM
TGI (SF-268 CNS): > 100 µM
TGI (SF-295 CNS): > 100 µM
TGI (SF-539 CNS): > 100 µM
TGI (SK-MEL-2 melanoma): > 100 µM
TGI (SK-MEL-28 melanoma): > 100 µM
TGI (SK-MEL-5 melanoma): > 100 µM
TGI (SK-OV-3 ovarian): > 100 µM
TGI (SN12C renal): > 100 µM
TGI (SNB-19 CNS): > 100 µM
TGI (SNB-75 CNS): > 100 µM
TGI (SR leukemia): > 100 µM
TGI (SW-620 colon): > 100 µM
TGI (T-47D breast): > 100 µM
TGI (TK-10 renal): > 100 µM
TGI (U251 CNS): > 100 µM
TGI (UACC-257 melanoma): > 100 µM
TGI (UACC-62 melanoma): > 100 µM
TGI (UO-31 renal): > 100 µM

CC(C)(C)O/N=C/c1cc(NC(=S)c2ccsc2)ccc1Cl
TGI (786-0 renal): 31.6 µM
TGI (A498 renal): 24.9 µM
TGI (A549 NSCLC): 63.8 µM
TGI (BT-549 breast): 27 µM
TGI (CAKI-1 renal): 30.2 µM
TGI (CCRF-CEM leukemia): 57.3 µM
TGI (COLO 205 colon): 28.3 µM
TGI (DU-145 prostate): 17.1 µM
TGI (EKVX NSCLC): 41.1 µM
TGI (HCC-2998 colon): 27.6 µM
TGI (HCT-116 colon): 26.5 µM
TGI (HCT-15 colon): 27.7 µM
TGI (HL-60(TB) leukemia): 39 µM
TGI (HOP-62 NSCLC): 29.4 µM
TGI (HOP-92 NSCLC): 37.7 µM
TGI (HS 578T breast): 57 µM
TGI (HT29 colon): 26.1 µM
TGI (IGROV1 ovarian): 34.9 µM
TGI (KM12 colon): 23.3 µM
TGI (LOX IMVI melanoma): 30.7 µM
TGI (M14 melanoma): 31.4 µM
TGI (MALME-3M melanoma): 31.5 µM
TGI (MCF7 breast): 24.8 µM
TGI (MDA-MB-231 breast): 32.1 µM
TGI (MDA-MB-435): 38.5 µM
TGI (MDA-N): 29.8 µM
TGI (MOLT-4 leukemia): 26.1 µM
TGI (NCI-H226 lung): 35.9 µM
TGI (NCI-H23 lung): 20.7 µM
TGI (NCI-H522 lung): 33.6 µM
TGI (NCI/ADR-RES ovarian): 33.9 µM
TGI (OVCAR-3 ovarian): 28.1 µM
TGI (OVCAR-4 ovarian): 28.7 µM
TGI (OVCAR-5 ovarian): 32.9 µM
TGI (OVCAR-8 ovarian): 29.7 µM
TGI (PC-3 prostate): 26.1 µM
TGI (RPMI-8226 leukemia): 12.2 µM
TGI (RXF 393 renal): 36.8 µM
TGI (SF-268 CNS): 38.2 µM
TGI (SF-295 CNS): 25.3 µM
TGI (SF-539 CNS): 37 µM
TGI (SK-MEL-2 melanoma): 29.5 µM
TGI (SK-MEL-28 melanoma): 39.2 µM
TGI (SK-MEL-5 melanoma): 16.9 µM
TGI (SK-OV-3 ovarian): 46.8 µM
TGI (SN12C renal): 32.2 µM
TGI (SNB-75 CNS): 77.4 µM
TGI (SR leukemia): 13.9 µM
TGI (SW-620 colon): 55.2 µM
TGI (T-47D breast): 16.1 µM
TGI (TK-10 renal): 26.6 µM
TGI (U251 CNS): 43.8 µM
TGI (UACC-257 melanoma): 25.2 µM
TGI (UACC-62 melanoma): 28.8 µM
TGI (UO-31 renal): 24.6 µM
